In US11242344B2, “(4-hydroxypyrrolidin-2-yl)-heterocyclic compounds and methods of use thereof” (Genentech, Inc., priority 2017, dated 2022):

Legend:
[1] = biological target: VHL co-expressed with Elongins B and C (Homo sapiens (Human), UniProt P40337); assay: Surface Plasmon Resonance Assay; assay type: binding; details: SPR measured VHL affinity; geometric mean where more than one measurement
Method in brief: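 Avidin-tagged VHL co-expressed with Elongins B and C captured on a streptavidin chip. Compounds injected low-to-high concentration at 20 °C and 80 μL/min in 50 mM HEPES pH 7.2, 150 mM NaCl, 0.5 mM TCEP, 0.001% Tween 20, 0.2% PEG3350, 2% DMSO. Kinetic parameters from fits of binding curves.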

[2] = biological target: NanoLuc VHL fusion protein (Homo sapiens (Human), UniProt P40337); assay: VHL HEK-293 BRET Assay (NanoBRET Target Engagement); assay type: cell-based; details: geometric mean where more than one measurement
NanoLuc VHL fusion protein, sequence (P40337 whole entry, looked up, the tested form may be a part): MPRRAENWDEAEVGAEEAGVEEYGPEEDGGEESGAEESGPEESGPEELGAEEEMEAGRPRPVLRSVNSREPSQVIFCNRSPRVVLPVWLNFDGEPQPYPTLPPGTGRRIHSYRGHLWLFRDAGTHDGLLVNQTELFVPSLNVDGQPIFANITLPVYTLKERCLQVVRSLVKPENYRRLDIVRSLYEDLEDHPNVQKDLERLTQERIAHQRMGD
NanoLuc VHL fusion protein, sequence (Q15370 whole entry partner, looked up, the tested form may be a part): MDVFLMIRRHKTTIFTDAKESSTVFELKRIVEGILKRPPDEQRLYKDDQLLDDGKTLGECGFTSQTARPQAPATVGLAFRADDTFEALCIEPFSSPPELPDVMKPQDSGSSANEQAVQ
NanoLuc VHL fusion protein, sequence (Q15369 whole entry partner, looked up, the tested form may be a part): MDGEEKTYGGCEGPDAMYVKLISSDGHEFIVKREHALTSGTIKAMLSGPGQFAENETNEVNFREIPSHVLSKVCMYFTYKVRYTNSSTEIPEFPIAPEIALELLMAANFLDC
Method in brief: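 HEK293 cells stably expressing NanoLuc-VHL, 2 h with compound titration and 1 uM final tracer, then Nano-Glo substrate plus extracellular NanoLuc inhibitor. BRET ratio 610/460 nm, background-corrected with no-tracer wells, normalised to DMSO and 10 uM unlabeled VHL antagonist controls; IC50 by four-parameter fit.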

[3] = biological target: VHL Elongin B/C complex (Homo sapiens (Human), UniProt P40337); assay: Fluorescence Polarization (FP) VHL Binding Assay; details: VHL binding, FP assay; geometric mean where more than one measurement
VHL Elongin B/C complex, sequence (P40337 whole entry, looked up): as the sequence (P40337 whole entry, looked up, the tested form may be a part) above
VHL Elongin B/C complex, sequence (Q15370 whole entry partner, looked up): as the sequence (Q15370 whole entry partner, looked up, the tested form may be a part) above
VHL Elongin B/C complex, sequence (Q15369 whole entry partner, looked up): as the sequence (Q15369 whole entry partner, looked up, the tested form may be a part) above
Method in brief: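 FP tracer competition using His6-tagged human VHL (E55-D213) co-expressed with Elongin B and C in E. coli, final 2.64 nM, with TAMRA-labelled VHL ligand probe at 1.67 nM final. Buffer 50 mM Tris pH 8.0, 120 mM NaCl, 0.005% NP-40, 1% DMSO; 1 h at room temperature. Pre-assay compound/protein signal subtracted; IC50 from four-parameter fit.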

VHL co-expressed with Elongins B and C, sequence (P40337 whole entry, looked up): as the sequence (P40337 whole entry, looked up, the tested form may be a part) above
VHL co-expressed with Elongins B and C, sequence (Q15370 whole entry partner, looked up): as the sequence (Q15370 whole entry partner, looked up, the tested form may be a part) above
VHL co-expressed with Elongins B and C, sequence (Q15369 whole entry partner, looked up): as the sequence (Q15369 whole entry partner, looked up, the tested form may be a part) above

| Kd [1] [µM] | IC50 [2] [µM] | IC50 [3] [µM] | Compound |
| --- | --- | --- | --- |
| 10.1 | 54.6 | 32.9 | CC(=O)N1CCCCC1C(=O)N1C[C@H](O)CC1C1=NC(=O)[C@](C)(c2ccc(-c3scnc3C)cc2)N1 (single isomer, unassigned) [Example 124.2] |
| ≥ 150 | 100 | ≥ 400 | CC(=O)N1CCCCC1C(=O)N1C[C@H](O)CC1C1=NC(=O)[C@](C)(c2ccc(-c3scnc3C)cc2)N1 (single isomer, unassigned) [Example 124.3] |
| ≥ 150 | 100 | ≥ 400 | CC(=O)N1CCCCC1C(=O)N1C[C@H](O)CC1C1=NC(=O)[C@](C)(c2ccc(-c3scnc3C)cc2)N1 (single isomer, unassigned) [Example 124.4] |
| 14.7 | 100 | 179 | Cc1ncsc1-c1ccc([C@]2(C)NC(C3C[C@@H](O)CN3C(=O)C3N(S(C)(=O)=O)CCC3(C)C)=NC2=O)cc1 (single isomer, unassigned) [Example 125.1] |
| ≥ 150 | 100 | ≥ 400 | Cc1ncsc1-c1ccc([C@]2(C)NC(C3C[C@@H](O)CN3C(=O)C3N(S(C)(=O)=O)CCC3(C)C)=NC2=O)cc1 (single isomer, unassigned) [Example 125.2] |
| ≥ 150 | 100 | ≥ 400 | Cc1ncsc1-c1ccc([C@]2(C)NC(C3C[C@@H](O)CN3C(=O)C3N(S(C)(=O)=O)CCC3(C)C)=NC2=O)cc1 (single isomer, unassigned) [Example 125.3] |
| ≥ 150 | 100 | ≥ 400 | Cc1ncsc1-c1ccc([C@]2(C)NC(C3C[C@@H](O)CN3C(=O)C3N(S(C)(=O)=O)CCC3(C)C)=NC2=O)cc1 (single isomer, unassigned) [Example 125.4] |
| 5.7 | 10.7 | 33.6 | Cc1cc([C@H](C(=O)N2C[C@H](O)C[C@H]2C2=NOC(C)(c3ccccc3)N2)C(C)C)on1 (single isomer, unassigned) [Example 128.3] |
| 7.5 | 24.5 | 17.3 | Cc1cc([C@H](C(=O)N2C[C@H](O)C[C@H]2C2=NOC(C)(c3ccccc3)N2)C(C)C)on1 (single isomer, unassigned) [Example 128.4] |
| 48.1 | 100 | 79 | Cc1cc([C@@H](C(=O)N2C[C@H](O)C[C@H]2C2=NOC(C)(c3ccc(-c4scnc4C)cc3)N2)C(C)C)on1 (single isomer, unassigned) [Example 129.1] |
| 57 | 77.9 | 58.4 | Cc1cc([C@@H](C(=O)N2C[C@H](O)C[C@H]2C2=NOC(C)(c3ccc(-c4scnc4C)cc3)N2)C(C)C)on1 (single isomer, unassigned) [Example 129.2] |
| 0.0293 | 0.304 | 0.418 | Cc1cc([C@H](C(=O)N2C[C@H](O)C[C@H]2C2=NOC(C)(c3ccc(-c4scnc4C)cc3)N2)C(C)C)on1 (single isomer, unassigned) [Example 129.3] |
| 0.0438 | 0.239 | 0.202 | Cc1cc([C@H](C(=O)N2C[C@H](O)C[C@H]2C2=NOC(C)(c3ccc(-c4scnc4C)cc3)N2)C(C)C)on1 (single isomer, unassigned) [Example 129.4] |
| 83 | 100 | 96.1 | Cc1cc([C@@H](C(=O)N2C[C@H](O)C[C@H]2C2=NOC3(CCc4ccccc43)N2)C(C)C)on1 (single isomer, unassigned) [Example 130.1] |
| 121 | 100 | 362 | Cc1cc([C@@H](C(=O)N2C[C@H](O)C[C@H]2C2=NOC3(CCc4ccccc43)N2)C(C)C)on1 (single isomer, unassigned) [Example 130.2] |
| 4.69 | 16.2 | 17.6 | Cc1cc([C@H](C(=O)N2C[C@H](O)C[C@H]2C2=NOC3(CCc4ccccc43)N2)C(C)C)on1 (single isomer, unassigned) [Example 130.3] |

| Kd [1] [µM] | IC50 [2] [µM] | IC50 [3] [µM] | Compound |
| --- | --- | --- | --- |
| 4.24 | 34.5 | 17.5 | Cc1cc([C@H](C(=O)N2C[C@H](O)C[C@H]2C2=NOC3(CCc4ccccc43)N2)C(C)C)on1 (single isomer, unassigned) [Example 130.4] |
| ≥ 150 | 100 | ≥ 400 | Cc1cc([C@@H](C(=O)N2C[C@H](O)C[C@H]2C2=NOC(c3ccc(Br)cc3)(C(F)(F)F)N2)C(C)C)on1 (single isomer, unassigned) [Example 133.1] |
| 36.3 | 22.6 | 34.4 | Cc1cc([C@H](C(=O)N2C[C@H](O)C[C@H]2C2=NOC(c3ccc(Br)cc3)(C(F)(F)F)N2)C(C)C)on1 (single isomer, unassigned) [Example 133.3] |
| 17.4 | 52.3 | 54.9 | Cc1cc([C@H](C(=O)N2C[C@H](O)C[C@H]2C2=NOC(c3ccc(Br)cc3)(C(F)(F)F)N2)C(C)C)on1 (single isomer, unassigned) [Example 133.4] |
| ≥ 150 | 100 | ≥ 400 | Cc1cc(C(C(=O)N2C[C@H](O)C[C@H]2C2=NN(CC(F)(F)F)C(C)(C)N2)C(C)C)on1 (single isomer, unassigned) [Example 134.1] |
| 57.4 | 41.3 | 48.2 | Cc1cc(C(C(=O)N2C[C@H](O)C[C@H]2C2=NN(CC(F)(F)F)C(C)(C)N2)C(C)C)on1 (single isomer, unassigned) [Example 134.2] |
| ≥ 150 | 100 | ≥ 400 | Cc1cc(C(C(=O)N2C[C@H](O)C[C@H]2C2=NN(c3ccccc3)C(C)(C)N2)C(C)C)on1 (single isomer, unassigned) [Example 135.1] |
| 6.55 | 5.67 | 9.32 | Cc1cc(C(C(=O)N2C[C@H](O)C[C@H]2C2=NN(c3ccccc3)C(C)(C)N2)C(C)C)on1 (single isomer, unassigned) [Example 135.2] |
| 67.1 | ≥ 100 | ≥ 400 | CC/C(=C(\c1ccc(O)cc1)c1ccc(OCCN(C)C(=O)CCCOCCOc2cc(C(C(=O)N3C[C@H](O)CC3C3=NC(=O)[C@](C)(c4ccc(-c5scnc5C)cc4)N3)C(C)C)on2)cc1)c1ccccc1 (single isomer, unassigned) [Example 1003.1] |
| 67.1 | ≥ 100 | ≥ 400 | CC/C(=C(\c1ccc(O)cc1)c1ccc(OCCN(C)C(=O)CCCOCCOc2cc(C(C(=O)N3C[C@H](O)CC3C3=NC(=O)[C@](C)(c4ccc(-c5scnc5C)cc4)N3)C(C)C)on2)cc1)c1ccccc1 (single isomer, unassigned) [Example 1003.2] |
| 67.1 | 51.6 | 30.4 | CC/C(=C(\c1ccc(O)cc1)c1ccc(OCCN(C)C(=O)CCCOCCOc2cc(C(C(=O)N3C[C@H](O)CC3C3=NC(=O)[C@](C)(c4ccc(-c5scnc5C)cc4)N3)C(C)C)on2)cc1)c1ccccc1 (single isomer, unassigned) [Example 1003.3] |
| 67.1 | ≥ 100 | ≥ 100 | CC/C(=C(\c1ccc(O)cc1)c1ccc(OCCN(C)C(=O)CCCOCCOc2cc(C(C(=O)N3C[C@H](O)CC3C3=NC(=O)[C@](C)(c4ccc(-c5scnc5C)cc4)N3)C(C)C)on2)cc1)c1ccccc1 (single isomer, unassigned) [Example 1003.4] |
| 12.8 | 45.4 | 31.4 | Cc1cc([C@H](C(=O)N2C[C@H](O)C[C@H]2C2=NOC(C)(C)N2)C(C)C)on1 [Example 126.1, (R)-1-((2S,4R)-2-(5,5-dimethyl-4,5-dihydro-1,2,4-oxadiazol-3-yl)-4-hydroxypyrrolidin-1-yl)-3-methyl-2-(3-methylisoxazol-5-yl)butan-1-one] |
| ≥ 150 | 100 | ≥ 400 | Cc1cc([C@@H](C(=O)N2C[C@H](O)C[C@H]2C2=NOC3(CCCC3)N2)C(C)C)on1 [Example 127.1, (S)-1-((2S,4R)-4-hydroxy-2-(1-oxa-2,4-diazaspiro[4.4]non-2-en-3-yl)pyrrolidin-1-yl)-3-methyl-2-(3-methylisoxazol-5-yl)butan-1-one] |
| 16.4 | 73.2 | 50.8 | Cc1cc([C@H](C(=O)N2C[C@H](O)C[C@H]2C2=NOC3(CCCC3)N2)C(C)C)on1 [Example 127.2, (R)-1-((2S,4R)-4-hydroxy-2-(1-oxa-2,4-diazaspiro[4.4]non-2-en-3-yl)pyrrolidin-1-yl)-3-methyl-2-(3-methylisoxazol-5-yl)butan-1-one] |
| ≥ 150 | 100 | ≥ 400 | Cc1cc([C@@H](C(=O)N2C[C@H](O)C[C@H]2C2=NOC(c3ccccc3)(c3ccccc3)N2)C(C)C)on1 [Example 132.1, (S)-1-((2S,4R)-2-(5,5-diphenyl-4,5-dihydro-1,2,4-oxadiazol-3-yl)-4-hydroxypyrrolidin-1-yl)-3-methyl-2-(3-methylisoxazol-5-yl)butan-1-one] |
